Source: the kinase profiling compilation of Christmann-Franck et al. (2016)

How the values were obtained:
Assay in all cases: radiometric filter-binding kinase assay, Kinase HotSpot
Conditions in all cases: compound 0.5 µM; ATP 10 µM
[1] = biological target: MAP3K3 (human) (UniProt Q99759)
[2] = biological target: CLK1 (human) (UniProt P49759)
[3] = biological target: IRAK4 (human) (UniProt Q9NWZ3)
[4] = biological target: AURKC (human) (UniProt Q9UQB9)
[5] = biological target: TEK (human) (UniProt Q02763)
[6] = biological target: MAP3K8 (human) (UniProt P41279)
[7] = biological target: TAOK3 (human) (UniProt Q9H2K8)
[8] = biological target: MAP3K11 (human) (UniProt Q16584)
[9] = biological target: MAPKAPK2 (human) (UniProt P49137)
[10] = biological target: CSNK1E (human) (UniProt P49674)
Sequence of CSNK1E (human) (P49674 whole entry, looked up): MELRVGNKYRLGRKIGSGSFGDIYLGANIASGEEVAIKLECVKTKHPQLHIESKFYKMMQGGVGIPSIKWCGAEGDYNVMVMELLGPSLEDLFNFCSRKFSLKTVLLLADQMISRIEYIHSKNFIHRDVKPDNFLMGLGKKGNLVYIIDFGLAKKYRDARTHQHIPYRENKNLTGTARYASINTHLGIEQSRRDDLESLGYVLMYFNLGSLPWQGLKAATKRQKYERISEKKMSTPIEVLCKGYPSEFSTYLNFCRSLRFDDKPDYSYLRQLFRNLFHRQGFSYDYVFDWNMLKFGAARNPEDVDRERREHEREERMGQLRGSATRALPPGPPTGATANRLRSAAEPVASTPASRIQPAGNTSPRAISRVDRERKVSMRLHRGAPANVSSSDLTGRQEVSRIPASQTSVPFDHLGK

[11] = biological target: MAP4K5 (human) (UniProt Q9Y4K4)
[12] = biological target: HIPK1 (human) (UniProt Q86Z02)
Sequence of HIPK1 (human) (Q86Z02 whole entry, looked up): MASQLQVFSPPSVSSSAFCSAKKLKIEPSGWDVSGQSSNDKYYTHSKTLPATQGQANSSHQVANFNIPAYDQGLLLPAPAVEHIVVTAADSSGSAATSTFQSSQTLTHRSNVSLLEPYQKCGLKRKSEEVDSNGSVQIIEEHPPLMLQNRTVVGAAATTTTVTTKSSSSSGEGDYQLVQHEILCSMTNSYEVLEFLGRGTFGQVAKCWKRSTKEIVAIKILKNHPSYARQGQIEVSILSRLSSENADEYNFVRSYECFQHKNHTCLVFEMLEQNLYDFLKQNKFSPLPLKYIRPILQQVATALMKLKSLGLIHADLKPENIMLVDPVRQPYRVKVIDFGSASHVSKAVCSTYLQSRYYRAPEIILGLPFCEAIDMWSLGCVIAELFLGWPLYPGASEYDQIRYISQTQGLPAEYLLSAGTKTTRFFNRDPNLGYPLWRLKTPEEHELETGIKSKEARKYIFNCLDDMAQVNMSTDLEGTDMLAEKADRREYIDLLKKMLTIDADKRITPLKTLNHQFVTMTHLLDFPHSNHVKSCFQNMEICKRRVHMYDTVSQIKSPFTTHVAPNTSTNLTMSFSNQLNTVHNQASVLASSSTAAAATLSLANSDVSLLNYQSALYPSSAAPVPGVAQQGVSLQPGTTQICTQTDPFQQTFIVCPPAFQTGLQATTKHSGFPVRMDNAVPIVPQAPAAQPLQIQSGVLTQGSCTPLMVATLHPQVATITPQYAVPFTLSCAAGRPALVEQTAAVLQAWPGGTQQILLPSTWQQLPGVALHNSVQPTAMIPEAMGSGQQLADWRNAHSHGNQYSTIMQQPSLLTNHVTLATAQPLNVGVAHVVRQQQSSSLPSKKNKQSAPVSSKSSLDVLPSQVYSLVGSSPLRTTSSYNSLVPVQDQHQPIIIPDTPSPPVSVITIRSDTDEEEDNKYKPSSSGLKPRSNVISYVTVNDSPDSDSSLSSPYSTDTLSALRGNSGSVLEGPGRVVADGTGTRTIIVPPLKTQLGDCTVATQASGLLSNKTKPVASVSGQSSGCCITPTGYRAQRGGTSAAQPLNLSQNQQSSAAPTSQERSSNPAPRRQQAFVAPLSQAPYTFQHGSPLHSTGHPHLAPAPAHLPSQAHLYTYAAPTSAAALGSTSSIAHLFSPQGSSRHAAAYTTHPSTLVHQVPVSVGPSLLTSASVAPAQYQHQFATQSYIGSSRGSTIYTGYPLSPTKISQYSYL

[13] = biological target: RAF1 (human) (UniProt P04049)
[14] = biological target: TNK2 (human) (UniProt Q07912)
[15] = biological target: RPS6KB1 (human) (UniProt P23443)
[16] = biological target: FGR (human) (UniProt P09769)
[17] = biological target: SGK3 (human) (UniProt Q96BR1)
[18] = biological target: WEE1 (human) (UniProt P30291)
[19] = biological target: GRK7 (human) (UniProt Q8WTQ7)
Sequence of GRK7 (human) (Q8WTQ7 whole entry, looked up): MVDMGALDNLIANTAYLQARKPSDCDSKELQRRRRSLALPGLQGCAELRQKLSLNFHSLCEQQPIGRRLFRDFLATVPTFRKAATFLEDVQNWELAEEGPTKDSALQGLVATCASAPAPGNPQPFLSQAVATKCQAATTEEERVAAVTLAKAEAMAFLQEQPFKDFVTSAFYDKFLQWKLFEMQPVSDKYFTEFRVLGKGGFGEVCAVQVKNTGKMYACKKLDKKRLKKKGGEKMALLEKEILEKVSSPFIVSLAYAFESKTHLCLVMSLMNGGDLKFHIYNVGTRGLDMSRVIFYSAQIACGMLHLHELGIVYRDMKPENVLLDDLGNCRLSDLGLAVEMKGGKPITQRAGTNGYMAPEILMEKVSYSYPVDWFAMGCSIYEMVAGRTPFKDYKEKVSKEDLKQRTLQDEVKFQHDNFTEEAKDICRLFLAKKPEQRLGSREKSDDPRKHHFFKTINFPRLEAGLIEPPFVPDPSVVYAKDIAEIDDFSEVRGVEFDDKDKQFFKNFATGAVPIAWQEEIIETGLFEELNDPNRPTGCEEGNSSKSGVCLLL

[20] = biological target: SLK (human) (UniProt Q9H2G2)
Sequence of SLK (human) (Q9H2G2 whole entry, looked up): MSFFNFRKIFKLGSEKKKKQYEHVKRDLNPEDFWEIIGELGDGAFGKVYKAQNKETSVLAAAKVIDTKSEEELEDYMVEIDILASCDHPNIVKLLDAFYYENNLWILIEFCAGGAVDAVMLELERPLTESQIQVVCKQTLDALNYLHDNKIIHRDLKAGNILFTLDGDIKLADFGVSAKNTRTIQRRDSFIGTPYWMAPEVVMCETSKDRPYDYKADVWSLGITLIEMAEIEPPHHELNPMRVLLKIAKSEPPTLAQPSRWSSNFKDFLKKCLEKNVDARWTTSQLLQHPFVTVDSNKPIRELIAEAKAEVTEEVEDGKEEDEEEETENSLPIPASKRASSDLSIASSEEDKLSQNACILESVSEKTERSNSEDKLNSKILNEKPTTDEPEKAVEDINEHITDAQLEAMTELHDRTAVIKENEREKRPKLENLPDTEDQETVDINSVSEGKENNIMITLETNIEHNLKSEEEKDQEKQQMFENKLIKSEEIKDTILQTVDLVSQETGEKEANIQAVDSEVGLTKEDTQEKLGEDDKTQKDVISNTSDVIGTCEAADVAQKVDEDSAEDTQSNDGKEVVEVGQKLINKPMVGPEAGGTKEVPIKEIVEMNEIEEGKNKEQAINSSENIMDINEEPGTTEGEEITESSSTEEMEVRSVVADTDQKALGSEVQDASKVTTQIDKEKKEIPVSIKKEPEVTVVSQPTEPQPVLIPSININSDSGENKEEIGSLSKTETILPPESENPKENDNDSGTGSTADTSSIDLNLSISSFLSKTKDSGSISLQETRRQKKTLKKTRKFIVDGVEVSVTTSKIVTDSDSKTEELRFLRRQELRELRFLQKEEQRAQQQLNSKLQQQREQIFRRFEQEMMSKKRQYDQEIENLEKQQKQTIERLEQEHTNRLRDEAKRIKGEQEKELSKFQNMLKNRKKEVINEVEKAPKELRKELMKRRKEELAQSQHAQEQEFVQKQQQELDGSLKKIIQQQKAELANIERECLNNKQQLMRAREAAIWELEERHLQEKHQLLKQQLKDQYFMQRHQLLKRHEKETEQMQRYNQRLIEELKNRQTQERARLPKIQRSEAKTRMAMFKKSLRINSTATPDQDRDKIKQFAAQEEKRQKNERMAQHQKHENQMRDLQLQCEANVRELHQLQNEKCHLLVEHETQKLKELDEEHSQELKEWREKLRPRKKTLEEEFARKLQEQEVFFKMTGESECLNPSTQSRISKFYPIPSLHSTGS

[21] = biological target: CDK9 CCNT1 (human) (UniProt P50750+O60563)
[22] = biological target: PAK2 (human) (UniProt Q13177)
[23] = biological target: NTRK3 (human) (UniProt Q16288)
[24] = biological target: HIPK3 (human) (UniProt Q9H422)
[25] = biological target: SYK (human) (UniProt P43405)
[26] = biological target: CDK5 CDK5R1 p35 (human) (UniProt Q00535+Q15078)
[27] = biological target: NTRK1 (human) (UniProt P04629)
[28] = biological target: STK4 (human) (UniProt Q13043)
Sequence of STK4 (human) (Q13043 whole entry, looked up): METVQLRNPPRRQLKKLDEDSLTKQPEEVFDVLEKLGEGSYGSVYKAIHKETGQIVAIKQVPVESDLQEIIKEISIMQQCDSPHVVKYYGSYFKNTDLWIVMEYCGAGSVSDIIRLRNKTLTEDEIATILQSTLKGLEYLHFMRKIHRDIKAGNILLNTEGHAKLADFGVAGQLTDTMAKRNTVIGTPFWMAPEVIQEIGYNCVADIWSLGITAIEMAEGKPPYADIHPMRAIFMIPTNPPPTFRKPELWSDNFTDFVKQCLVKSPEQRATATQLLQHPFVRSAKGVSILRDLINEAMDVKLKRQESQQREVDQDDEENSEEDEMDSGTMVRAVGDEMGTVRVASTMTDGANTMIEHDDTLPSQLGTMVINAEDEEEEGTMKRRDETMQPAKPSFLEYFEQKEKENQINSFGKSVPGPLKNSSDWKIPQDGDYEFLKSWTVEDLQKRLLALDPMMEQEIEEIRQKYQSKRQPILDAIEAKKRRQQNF

[29] = biological target: CDK9 CCNK (human) (UniProt O75909+P50750)
[30] = biological target: MAP3K2 (human) (UniProt Q9Y2U5)
[31] = biological target: FGFR4 (human) (UniProt P22455)
[32] = biological target: AURKA (human) (UniProt O14965)
[33] = biological target: VRK1 (human) (UniProt Q99986)
[34] = biological target: NEK1 (human) (UniProt Q96PY6)
[35] = biological target: HIPK4 (human) (UniProt Q8NE63)
[36] = biological target: PNCK (human) (UniProt Q6P2M8)
[37] = biological target: STK10 (human) (UniProt O94804)
[38] = biological target: SGK2 (human) (UniProt Q9HBY8)
Sequence of SGK2 (human) (Q9HBY8 whole entry, looked up): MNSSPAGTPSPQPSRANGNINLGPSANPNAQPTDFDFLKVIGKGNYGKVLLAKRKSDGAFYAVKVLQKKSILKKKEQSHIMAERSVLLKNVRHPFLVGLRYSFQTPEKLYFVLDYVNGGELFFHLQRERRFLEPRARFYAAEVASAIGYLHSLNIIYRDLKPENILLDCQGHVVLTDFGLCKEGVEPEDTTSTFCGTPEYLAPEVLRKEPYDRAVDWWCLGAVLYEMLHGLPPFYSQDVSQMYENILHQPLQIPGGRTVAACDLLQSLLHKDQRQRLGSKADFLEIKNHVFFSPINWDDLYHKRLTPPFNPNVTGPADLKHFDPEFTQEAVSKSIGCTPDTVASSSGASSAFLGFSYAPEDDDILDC

[39] = biological target: PRKCH (human) (UniProt P24723)
[40] = biological target: PLK3 (human) (UniProt Q9H4B4)
[41] = biological target: CAMK1D (human) (UniProt Q8IU85)
Sequence of CAMK1D (human) (Q8IU85 whole entry, looked up): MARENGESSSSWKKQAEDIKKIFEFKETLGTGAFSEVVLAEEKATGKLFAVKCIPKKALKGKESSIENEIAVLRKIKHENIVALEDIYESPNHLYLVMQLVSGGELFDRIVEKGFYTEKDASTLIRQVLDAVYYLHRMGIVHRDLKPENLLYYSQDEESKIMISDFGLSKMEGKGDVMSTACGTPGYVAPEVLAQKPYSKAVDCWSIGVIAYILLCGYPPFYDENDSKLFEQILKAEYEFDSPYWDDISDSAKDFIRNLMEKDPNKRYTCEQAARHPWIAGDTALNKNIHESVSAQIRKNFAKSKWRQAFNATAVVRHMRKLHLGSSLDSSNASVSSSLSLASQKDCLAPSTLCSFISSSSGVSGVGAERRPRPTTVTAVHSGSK

[42] = biological target: FLT1 (human) (UniProt P17948)

Sequence of AURKC (human) (Q9UQB9 whole entry, looked up): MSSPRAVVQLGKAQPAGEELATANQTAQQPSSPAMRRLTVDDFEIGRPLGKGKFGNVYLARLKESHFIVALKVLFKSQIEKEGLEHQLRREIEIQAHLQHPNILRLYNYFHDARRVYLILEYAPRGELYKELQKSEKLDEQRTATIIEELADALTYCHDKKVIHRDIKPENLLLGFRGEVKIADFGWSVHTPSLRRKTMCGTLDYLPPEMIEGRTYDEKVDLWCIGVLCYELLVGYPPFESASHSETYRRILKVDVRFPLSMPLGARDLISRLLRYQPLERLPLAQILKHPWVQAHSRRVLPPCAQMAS

`Clc1ccc(Nc2nnc(Cc3ccncc3)c3ccccc23)cc1` gave a residual activity [1] of 118%, a residual activity [2] of 110% and a residual activity [3] of 85.1%. For the same compound, the residual activity [4] was 87%, the residual activity [5] was 97.5% and the residual activity [6] was 98.2%. It also gave a residual activity [7] of 99.9%, a residual activity [8] of 106% and a residual activity [9] of 98.8%. It also gave a residual activity [10] of 99.1%, a residual activity [11] of 101% and a residual activity [12] of 99.2%. The residual activity [13] was 93.3%, the residual activity [14] was 91.7% and the residual activity [15] was 102%. The residual activity [16] was 96.8%, the residual activity [17] was 99.2% and the residual activity [18] was 109%. The residual activity [19] was 92.2%, the residual activity [20] was 94.2% and the residual activity [21] was 94.9%. It also gave a residual activity [22] of 101%, a residual activity [23] of 92.7% and a residual activity [24] of 96.5%. The residual activity [25] was 114%, the residual activity [26] was 97.2% and the residual activity [27] was 98.7%. The residual activity [28] was 105%, the residual activity [29] was 104% and the residual activity [30] was 126%. The residual activity [31] was 95.8%, the residual activity [32] was 79% and the residual activity [33] was 109%. The residual activity [34] was 75.3%, the residual activity [35] was 95.9% and the residual activity [36] was 103%. The residual activity [37] was 96.3%, the residual activity [38] was 104% and the residual activity [39] was 105%. For the same compound, the residual activity [40] was 100% and the residual activity [41] was 108%.

`CCN1/C(=C/C(C)=O)Sc2ccc(OC)cc21` gave a residual activity [1] of 114%, a residual activity [3] of 123% and a residual activity [4] of 94.8%. For the same compound, the residual activity [5] was 102%, the residual activity [6] was 103% and the residual activity [7] was 95.6%. The residual activity [8] was 102%, the residual activity [9] was 94.6% and the residual activity [10] was 60.1%. For the same compound, the residual activity [11] was 92.3%, the residual activity [42] was 88.4% and the residual activity [12] was 95%. The residual activity [13] was 95.9%, the residual activity [14] was 102% and the residual activity [15] was 95%. For the same compound, the residual activity [16] was 91.7%, the residual activity [17] was 93.4% and the residual activity [18] was 102%. It also gave a residual activity [19] of 104%, a residual activity [20] of 86.8% and a residual activity [21] of 101%. For the same compound, the residual activity [22] was 105%, the residual activity [23] was 91.9% and the residual activity [24] was 100%. For the same compound, the residual activity [25] was 94.8%, the residual activity [26] was 91.1% and the residual activity [27] was 85.7%. For the same compound, the residual activity [28] was 97.8%, the residual activity [29] was 86.2% and the residual activity [30] was 101%. It also gave a residual activity [31] of 92.3%, a residual activity [32] of 108% and a residual activity [33] of 98.2%. The residual activity [34] was 90.1%, the residual activity [35] was 94% and the residual activity [36] was 101%. The residual activity [37] was 96.8%, the residual activity [38] was 93.7% and the residual activity [39] was 88.1%. The residual activity [40] was 99.4% and the residual activity [41] was 105%.

Work on `O=c1cc(N2CCNCC2)oc2c(-c3ccccc3)cccc12` yielded a residual activity [1] of 109%, a residual activity [2] of 102% and a residual activity [3] of 96.8%. The residual activity [4] was 97.6%, the residual activity [5] was 95% and the residual activity [6] was 95.2%. It also gave a residual activity [7] of 92.8%, a residual activity [8] of 97.8% and a residual activity [9] of 103%. It also gave a residual activity [10] of 101%, a residual activity [42] of 86.6% and a residual activity [12] of 110%. For the same compound, the residual activity [13] was 94.2%, the residual activity [14] was 90.7% and the residual activity [15] was 102%. For the same compound, the residual activity [16] was 99.9%, the residual activity [17] was 111% and the residual activity [18] was 83.4%. The residual activity [19] was 114%, the residual activity [20] was 105% and the residual activity [21] was 98.8%. The residual activity [22] was 99.8%, the residual activity [23] was 99.8% and the residual activity [24] was 116%. For the same compound, the residual activity [25] was 104%, the residual activity [26] was 102% and the residual activity [27] was 96.4%. It also gave a residual activity [28] of 88.7%, a residual activity [29] of 94.2% and a residual activity [30] of 105%. For the same compound, the residual activity [31] was 106%, the residual activity [32] was 105% and the residual activity [33] was 92.1%. It also gave a residual activity [34] of 82.8%, a residual activity [35] of 96.9% and a residual activity [36] of 99.8%. The residual activity [37] was 94.3%, the residual activity [38] was 102% and the residual activity [39] was 97%. It also gave a residual activity [40] of 104% and a residual activity [41] of 82%.
